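Values below derive from 48-hour exposures of cells grown in 96-well plates, with endpoints linearly interpolated between the two concentrations bracketing the appropriate inhibition level. At the GI50, growth is halved.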 Active and inactive are the calls of the source. Cut-off read from the data, not from the text of the source: active = GI50 up to about 1.1 µM and inactive = higher.
Key:
Experiment in all cases: inhibition of tumour cell growth, NCI panel, 48 h
SF-268 = tested on: SF-268
OVCAR-3 = tested on: OVCAR-3
ACHN = tested on: ACHN
MDA-MB-231 = tested on: MDA-MB-231
BT-549 = tested on: BT-549
CAKI-1 = tested on: CAKI-1
U-251 = tested on: U-251
M14 = tested on: M14
Hs-578T = tested on: Hs-578T
MDA-N = tested on: MDA-N
SNB-75 = tested on: SNB-75
SK-MEL-28 = tested on: SK-MEL-28
KM12 = tested on: KM12
NCI-H23 = tested on: NCI-H23
SR = tested on: SR
HOP-62 = tested on: HOP-62
NCI-H522 = tested on: NCI-H522
DLD-1 = tested on: DLD-1
MDA-MB-435 = tested on: MDA-MB-435
NCI/ADR-RES = tested on: NCI/ADR-RES

SMILES	GI50 (SF-268)	GI50 (OVCAR-3)	GI50 (ACHN)	GI50 (MDA-MB-231)	GI50 (BT-549)	GI50 (CAKI-1)	GI50 (U-251)	GI50 (M14)	GI50 (Hs-578T)	GI50 (MDA-N)	GI50 (SNB-75)	GI50 (SK-MEL-28)	GI50 (KM12)	GI50 (NCI-H23)	GI50 (SR)	GI50 (HOP-62)	GI50 (NCI-H522)	GI50 (DLD-1)	GI50 (MDA-MB-435)	GI50 (NCI/ADR-RES)
COc1cccc2c1C(=O)c1c(O)c3c(c(O)c1C2=O)C[C@@](O)(C(=O)CO)C[C@@H]3OC1CC(N)C(OC)C(C)O1 (stereo partly drawn)	0.0726 µM (active)	0.338 µM (active)	0.0242 µM (active)	0.474 µM (active)	0.27 µM (active)	0.054 µM (active)	0.0224 µM (active)	0.0975 µM (active)	0.138 µM (active)	0.352 µM (active)	0.0282 µM (active)	0.315 µM (active)	0.0968 µM (active)	0.0605 µM (active)	< 0.0157 µM (active)	0.0234 µM (active)	0.076 µM (active)	0.0667 µM (active)	0.267 µM (active)	–
CC(NC(=O)/C(C#N)=C/c1ccc2[nH]ccc2c1)c1ccccc1 (stereo not drawn)	21.5 µM (inactive)	24.9 µM (inactive)	21.6 µM (inactive)	–	11.2 µM (inactive)	29.3 µM (inactive)	15.9 µM (inactive)	20.6 µM (inactive)	31.6 µM (inactive)	16.2 µM (inactive)	31.4 µM (inactive)	19.8 µM (inactive)	17.3 µM (inactive)	19.4 µM (inactive)	24.2 µM (inactive)	18.2 µM (inactive)	12.8 µM (inactive)	19.1 µM (inactive)	13.9 µM (inactive)	28.8 µM (inactive)
CCOC(=O)N1CCc2cc(OC)c(OC)c3c2c1cc1cc(OC)c(OC)cc13	4.51 µM (inactive)	0.984 µM (active)	4.11 µM (inactive)	5.96 µM (inactive)	0.577 µM (active)	2.51 µM (inactive)	2.7 µM (inactive)	4.29 µM (inactive)	1.99 µM (inactive)	0.127 µM (active)	1.37 µM (inactive)	4.19 µM (inactive)	0.695 µM (active)	3.95 µM (inactive)	0.807 µM (active)	3.27 µM (inactive)	0.618 µM (active)	1.3 µM (inactive)	0.393 µM (active)	0.655 µM (active)
CN(C)CCNc1ccc2nnn3c4ccc(Cl)cc4c(=O)c1c23	3.4 µM (inactive)	5.6 µM (inactive)	1.55 µM (inactive)	11.1 µM (inactive)	16 µM (inactive)	2.25 µM (inactive)	1.33 µM (inactive)	4.94 µM (inactive)	3.3 µM (inactive)	3.52 µM (inactive)	3.01 µM (inactive)	5.74 µM (inactive)	4.54 µM (inactive)	5.09 µM (inactive)	1.33 µM (inactive)	4.18 µM (inactive)	2.49 µM (inactive)	3.21 µM (inactive)	4.65 µM (inactive)	1.04 µM (active)
C/N=N/N(C)C(=O)NC	> 100 µM (inactive)	> 100 µM (inactive)	> 100 µM (inactive)	–	–	> 100 µM (inactive)	> 100 µM (inactive)	> 100 µM (inactive)	–	–	> 100 µM (inactive)	> 100 µM (inactive)	> 100 µM (inactive)	> 100 µM (inactive)	> 100 µM (inactive)	> 100 µM (inactive)	> 100 µM (inactive)	> 100 µM (inactive)	–	–
N=C(N)NCCCS(=O)(=O)Nc1ccc(Nc2c3ccccc3nc3cc([N+](=O)[O-])ccc23)cc1	6.19 µM (inactive)	15.6 µM (inactive)	21.4 µM (inactive)	35.2 µM (inactive)	27.2 µM (inactive)	40.8 µM (inactive)	4.05 µM (inactive)	16.4 µM (inactive)	12.5 µM (inactive)	21.3 µM (inactive)	13 µM (inactive)	18.1 µM (inactive)	10.2 µM (inactive)	4.65 µM (inactive)	5.42 µM (inactive)	14.5 µM (inactive)	7.06 µM (inactive)	30.1 µM (inactive)	> 100 µM (inactive)	19.6 µM (inactive)
N#C/N=C(/NCc1ccccc1)N(Cc1ccccc1)Cc1ccccc1	22.2 µM (inactive)	22.6 µM (inactive)	> 10 µM (inactive)	18.3 µM (inactive)	61.4 µM (inactive)	28.5 µM (inactive)	24.7 µM (inactive)	23.4 µM (inactive)	–	46.7 µM (inactive)	–	27.5 µM (inactive)	27.6 µM (inactive)	19.8 µM (inactive)	24.8 µM (inactive)	> 31.6 µM (inactive)	15.1 µM (inactive)	> 10 µM (inactive)	49.1 µM (inactive)	30.3 µM (inactive)
Cc1ccc(C(=O)N(Cc2ccccc2)Cc2ccccc2)cc1/N=N/N(C)C	18.5 µM (inactive)	4.49 µM (inactive)	7.01 µM (inactive)	22.9 µM (inactive)	18.5 µM (inactive)	6.82 µM (inactive)	37.8 µM (inactive)	18.1 µM (inactive)	19.3 µM (inactive)	30.2 µM (inactive)	–	19.3 µM (inactive)	8.32 µM (inactive)	11.2 µM (inactive)	27.7 µM (inactive)	23.1 µM (inactive)	9.44 µM (inactive)	21.4 µM (inactive)	22.4 µM (inactive)	22.5 µM (inactive)
NC(=O)COc1c(Br)cc(Br)cc1Br	> 100 µM (inactive)	> 100 µM (inactive)	> 100 µM (inactive)	–	–	> 100 µM (inactive)	> 100 µM (inactive)	> 100 µM (inactive)	–	–	> 100 µM (inactive)	> 100 µM (inactive)	> 100 µM (inactive)	> 100 µM (inactive)	> 100 µM (inactive)	> 100 µM (inactive)	> 100 µM (inactive)	> 100 µM (inactive)	–	–
